Earlier results as cited in patent US6617125B2, “Compositions for enhanced catalyzed reporter deposition” (PerkinElmer Life Sciences, Inc., priority 2001, dated 2003).

Legend:
[1] = test system: HRP; conditions: substrate guaiacol; Whitaker and Tappel 1962
[2] = target: T1, HRP (Armoracia rusticana, UniProt P00433)
T1 sequence (P00433 31-338 limits assumed): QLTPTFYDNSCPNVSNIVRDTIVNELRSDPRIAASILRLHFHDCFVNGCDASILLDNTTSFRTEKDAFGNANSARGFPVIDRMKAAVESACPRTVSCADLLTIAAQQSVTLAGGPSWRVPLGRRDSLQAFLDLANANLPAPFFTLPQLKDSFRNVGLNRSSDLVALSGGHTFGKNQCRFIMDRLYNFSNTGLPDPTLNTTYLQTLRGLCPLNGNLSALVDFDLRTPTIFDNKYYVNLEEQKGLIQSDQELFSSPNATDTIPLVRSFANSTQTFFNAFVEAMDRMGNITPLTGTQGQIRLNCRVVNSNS

effect on the oxidation of 4-chloro-1-naphthol ([2]; substrate 4-chloro-1-naphthol, de Jong et al. 1985)	enhancement of the oxidation of p-phenylenediamine-pyrocatechol ([2]; substrate combination p-phenylenediamine-pyrocatechol, de Jong et al. 1985)	enhancement of the oxidation of diaminobenzidine ([2]; substrate diaminobenzidine, de Jong et al. 1985)	effect on substrates which form covalently depositable products ([2]; substrates which form covalently depositable products)	Compound	enhancement of the oxidation of guaiacol [1]
				[Cl-].[K+] [KCl]	enhance
				O=S(=O)([O-])[O-].[Na+].[Na+] [Na2SO4]	enhance
				[Cl-].[Na+] [NaCl]	enhance
no effect	two	approximately four	no effect	c1c[nH]cn1 [imidazole]	
